{"source": "patent US20220354949A1", "about": "“NOVEL COMPOUNDS” (XENIOPRO GmbH, priority 2018, published 2022)", "format_in_all_cases": "cell-based", "key": {"[1]": {"tested_on": "HH cells (human cutaneous T-cell lymphoma cells)", "experiment": "Proliferation assay (alamarBlue) with HH cells", "details": "20 μM", "text": "(§1) The antiproliferative activities of compounds falling under formula (Ia), (Ib) and (Ic), respectively, were investigated on cells or cell lines originating from a disorder of the haematopoietic system, including the myeloid cell compartment and the lymphoid cell compartment (T-cells and B-cells), the neuroendocrine system, the cervix, the breast, the ovaries, the lung, the gastrointestinal tract, and the mucosal epithelium, as well as from the skin epithelium and from the muscle. To this end, HL-60 cells, NB-4 cells, HH cells, RPMI-8402 cells, TANOUE cells, TT cells, HeLa cells, MDA-MB-231 cells, FU-OV-1 cells, LOU-NH91 cells, 23132/87 cells, CAL-27 cells, BHY cells, SCC-25 cells, A-431 cells, human primary epidermal keratinocytes (HPEK), and C2C12 cells were seeded into 96-well plates suitable for fluorescence assays (CORNING #3598) at following initial cell numbers: 1000 cells per well for HL-60; 1000 cells per well for NB-4; 5000 cells per well for HH; 5000 cells per well for RPMI-8402; 1500 cells per well for TANOUE; 9000 cells per well for TT; 2000 cells per well for HeLa; 3000 cells per well for MDA-MB-231; 3000 cells per well for FU-OV-1; 4000 cells per well for LOU-NH91; 2000 cells per well for 23132/87; 2000 cells per well for CAL-27; 1500 cells per well for BHY; 1500 cells per well for SCC-25; 700 cells per well for A-431; 1000 cells per well for HPEK; 500 cells per well for C2C12. The cells were treated with compounds at indicated final concentrations (diluted from the 1000× stock-solutions in DMSO to a final DMSO concentration of 0.1% v/v in H2O (Water For Injection, WFI, Fisherscientific #10378939)) or with the empty carrier DMSO at 0.1% v/v as control for 5 days. At day 5 after starting the treatments the cells were subjected to the alamarBlue® Proliferation Assay (Bio-Rad Serotec GmbH, BUF012B) according to the protocol of the manufacturer. The readout was taken with a multi-well plate-reader in the fluorescence mode with applying a filter for excitation at 560 nm (band width 10 nm) and for emission at 590 nm (band width 10 nm). Control treatments for growth inhibition with commercial compounds such as Methotrexate (MTREX) and Resveratrol (RES) were included on every plate. Some of the test compounds of the present invention were obtained and applied as their salts. According cases are indicated in the column “Specification” in Table 55 to Table 92 and by their sum formula in Table 93.\n(§2) The assays were performed in duplicate or more replicates of independent single experiments each containing a six-fold replicate for every condition. For every individual plate, the measured fluorescence intensity values of the conditions with compound treatment were normalized against the corresponding equally weighted arithmetic mean of the fluorescence intensity values of the six DMSO treated control wells in order to obtain the relative values to a baseline level of 1.0.\n(§3) Two independent outlier analyses were performed according to the methods by Peirce and Chauvenet (Ross, Journal of Engineering Technology 2003, 1-12). Outliers confirmed by at least one of the methods were excluded from the calculations but not more than one value out of six per compound within a single experiment. The weighted arithmetic mean (here abbreviated as AVEw) for each compound was calculated from the normalized values over all independent replicates of the single experiments comprising the six replicates each. The corresponding standard deviation for the weighted arithmetic mean was calculated according to the method described by Bronstein et al. (Bronstein, Semendjajew, Musiol, Müihlig, Taschenbuch der Mathematik, 5th edition 2001 (German), publisher: Verlag Harri Deutsch, Frankfurt am Main and Thun) and was combined with the Gauß' error propagation associated with the performed calculation for the normalization. The resulting standard deviation is herein referred to as “combined standard deviation”. […]"}, "[2]": {"tested_on": "RPMI-8402 cells (human T cell acute lymphoblastic leukemia cells)", "experiment": "Proliferation assay (alamarBlue) with RPMI-8402 cells", "details": "20 μM", "text": "as §1, §2, §3"}, "[3]": {"tested_on": "TT cells (human medullary thyroid carcinoma cells)", "experiment": "Proliferation assay (alamarBlue) with TT cells", "details": "compound at 20 μM", "text": "as §1, §2, §3"}, "[4]": {"tested_on": "MDA-MB-231 cells (human breast carcinoma cells)", "experiment": "Proliferation assay (alamarBlue) with MDA-MB-231 cells", "details": "compound at 20 μM", "text": "as §1, §2, §3"}, "[5]": {"tested_on": "FU-OV-1 cells (human ovarian carcinoma cells)", "experiment": "Proliferation assay (alamarBlue) with FU-OV-1 cells", "details": "compound at 20 μM", "text": "as §1, §2, §3"}, "[6]": {"tested_on": "LOU-NH91 cells (human lung squamous cell carcinoma cells)", "experiment": "Proliferation assay (alamarBlue) with LOU-NH91 cells", "details": "20 μM", "text": "as §1, §2, §3"}, "[7]": {"tested_on": "CAL-27 cells (human tongue squamous cell carcinoma cells)", "experiment": "Proliferation assay (alamarBlue) with CAL-27 cells", "details": "20 μM", "text": "as §1, §2, §3"}, "[8]": {"tested_on": "BHY cells (human oral squamous cell carcinoma cells)", "experiment": "Proliferation assay (alamarBlue) with BHY cells", "design": "key: fluorescence relative to mean of DMSO control wells = 1.0", "details": "20 μM", "text": "as §1, §2, §3"}, "[9]": {"tested_on": "SCC-25 cells (human tongue squamous cell carcinoma cells)", "experiment": "Proliferation assay (alamarBlue) with SCC-25 cells", "details": "20 μM", "text": "as §1, §2, §3"}, "[10]": {"tested_on": "A-431 cells (human epidermoid squamous cell carcinoma cells)", "experiment": "Proliferation assay (alamarBlue) with A-431 cells", "details": "20 μM", "text": "as §1, §2, §3"}, "[11]": {"tested_on": "human epidermal keratinocyte progenitors (HPEKp, pooled)", "experiment": "Proliferation assay (alamarBlue) with HPEKp cells", "details": "control at 20 μM", "text": "(§4) The antiproliferative activities of compounds falling under formula (Ia), (Ib) and (Ic), respectively, were investigated on cells or cell lines originating from a disorder of the haematopoietic system, including the myeloid cell compartment and the lymphoid cell compartment (T-cells and B-cells), the neuroendocrine system, the cervix, the breast, the ovaries, the lung, the gastrointestinal tract, and the mucosal epithelium, as well as from the skin epithelium and from the muscle. To this end, HL-60 cells, NB-4 cells, HH cells, RPMI-8402 cells, TANOUE cells, TT cells, HeLa cells, MDA-MB-231 cells, FU-OV-1 cells, LOU-NH91 cells, 23132/87 cells, CAL-27 cells, BHY cells, SCC-25 cells, A-431 cells, human primary epidermal keratinocytes (HPEK), and C2C12 cells were seeded into 96-well plates suitable for fluorescence assays (CORNING #3598) at following initial cell numbers: 1000 cells per well for HL-60; 1000 cells per well for NB-4; 5000 cells per well for HH; 5000 cells per well for RPMI-8402; 1500 cells per well for TANOUE; 9000 cells per well for TT; 2000 cells per well for HeLa; 3000 cells per well for MDA-MB-231; 3000 cells per well for FU-OV-1; 4000 cells per well for LOU-NH91; 2000 cells per well for 23132/87; 2000 cells per well for CAL-27; 1500 cells per well for BHY; 1500 cells per well for SCC-25; 700 cells per well for A-431; 1000 cells per well for HPEK; 500 cells per well for C2C12. […] The readout was taken with a multi-well plate-reader in the fluorescence mode with applying a filter for excitation at 560 nm (band width 10 nm) and for emission at 590 nm (band width 10 nm). […]\nas §2, with “1.0. […]” for “1.0.”"}, "[12]": {"tested_on": "C2C12 cells (murine myoblast cells)", "experiment": "Proliferation assay (alamarBlue) with C2C12 cells", "details": "compounds and controls at 20 μM", "text": "as §4\nas §2, with “1.0. […]” for “1.0.”"}}}
{"smiles": "CN(Cc1cnc2nc(N)nc(N)c2n1)c1ccc(C(=O)N[C@@H](CCC(=O)O)C(=O)O)cc1", "note": "[MTREX, Methotrexate]", "values": [{"measurement": "Activity Range: weighted arithmetic mean (AVEw) of normalized fluorescence intensity, proliferation assay with HH cells", "setting": "[1]; relative to DMSO basis level 1.0, Table 59 (novel compounds)", "value": "0.4 ± 0.1"}, {"measurement": "Activity Range: weighted arithmetic mean (AVEw) of normalized fluorescence intensity, proliferation assay with HH cells", "setting": "[1]; relative to DMSO basis level 1.0, Table 60 (compounds disclosed in PCT/EP2018/054686)", "value": "0.4 ± 0.1"}, {"measurement": "Activity Range: weighted arithmetic mean (AVEw) of normalized fluorescence intensity, proliferation assay with RPMI-8402 cells", "setting": "[2]; relative to DMSO basis level 1.0, Table 61 (novel compounds)", "value": "0.1 ± 0.0"}, {"measurement": "Activity Range: weighted arithmetic mean (AVEw) of normalized fluorescence intensity, proliferation assay with RPMI-8402 cells", "setting": "[2]; relative to DMSO basis level 1.0, Table 62 (compounds disclosed in PCT/EP2018/054686)", "value": "0.1 ± 0.0"}, {"measurement": "Activity Range: weighted arithmetic mean (AVEw) of normalized fluorescence intensity relative to DMSO basis level 1.0", "setting": "[3]; Table 65 (novel compounds)", "value": "1.0 ± 0.0"}, {"measurement": "Activity Range: weighted arithmetic mean (AVEw) of normalized fluorescence intensity relative to DMSO basis level 1.0", "setting": "[3]; Table 66 (compounds of PCT/EP2018/054686)", "value": "1 ± 0.0"}, {"measurement": "activity at 20 µM", "setting": "[4]; Homo sapiens, Table 69 (novel compounds), read-out: Activity Range: weighted arithmetic mean (AVEw) of normalized fluorescence intensity relative to DMSO basis level 1.0", "value": 60, "unit": "%"}, {"measurement": "Activity Range: weighted arithmetic mean (AVEw) of normalized fluorescence intensity relative to DMSO basis level 1.0", "setting": "[4]; Table 70 (compounds of PCT/EP2018/054686)", "value": "0.6 ± 0.0"}, {"measurement": "Activity Range: weighted arithmetic mean (AVEw) of normalized fluorescence intensity relative to DMSO basis level 1.0", "setting": "[5]; Table 71 (novel compounds)", "value": "1.0 ± 0.0"}, {"measurement": "Activity Range: weighted arithmetic mean (AVEw) of normalized fluorescence intensity relative to DMSO basis level 1.0", "setting": "[5]; Table 72 (compounds of PCT/EP2018/054686)", "value": "1.0 ± 0.0"}, {"measurement": "Activity Range (weighted arithmetic mean AVEw of normalized fluorescence intensity, relative to DMSO basis level 1.0)", "setting": "[6]; Table 73 (novel compounds)", "value": "0.5 ± 0.1"}, {"measurement": "Activity Range (weighted arithmetic mean AVEw of normalized fluorescence intensity, relative to DMSO basis level 1.0)", "setting": "[6]; Table 74 (compounds disclosed in PCT/EP2018/054686)", "value": "0.5 ± 0.1"}, {"measurement": "Activity Range (weighted arithmetic mean AVEw of normalized fluorescence intensity, relative to DMSO basis level 1.0)", "setting": "[7]; Table 77 (novel compounds)", "value": "0.1 ± 0.0"}, {"measurement": "Activity Range (weighted arithmetic mean AVEw of normalized fluorescence intensity, relative to DMSO basis level 1.0)", "setting": "[7]; Table 78 (compounds disclosed in PCT/EP2018/054686)", "value": "0.1 ± 0.0"}, {"measurement": "Activity Range (weighted arithmetic mean AVEw of normalized fluorescence intensity, relative to DMSO basis level 1.0)", "setting": "[8]; Table 79 (novel compounds)", "value": "0.3 ± 0.0"}, {"measurement": "Activity Range (weighted arithmetic mean AVEw of normalized fluorescence intensity, relative to DMSO basis level 1.0)", "setting": "[8]; Table 80 (compounds disclosed in PCT/EP2018/054686)", "value": "0.3 ± 0.0"}, {"measurement": "Activity Range (weighted arithmetic mean AVEw of normalized fluorescence intensity, relative to DMSO basis level 1.0)", "setting": "[8]; Table 81 (compounds disclosed in PCT/EP2018/054686)", "value": "0.3 ± 0.0"}, {"measurement": "Activity Range (weighted arithmetic mean AVEw of normalized fluorescence intensity, relative to DMSO basis level 1.0)", "setting": "[9]; Table 82 (novel compounds)", "value": "0.5 ± 0.1"}, {"measurement": "Activity Range (weighted arithmetic mean AVEw of normalized fluorescence intensity, relative to DMSO basis level 1.0)", "setting": "[9]; Table 83 (compounds disclosed in PCT/EP2018/054686)", "value": "0.5 ± 0.1"}, {"measurement": "Activity Range (weighted arithmetic mean AVEw of normalized fluorescence intensity, relative to DMSO basis level 1.0)", "setting": "[10]; Table 84 (novel compounds)", "value": "0.2 ± 0.1"}, {"measurement": "Activity Range (weighted arithmetic mean AVEw of normalized fluorescence intensity, relative to DMSO basis level 1.0)", "setting": "[10]; Table 85 (compounds disclosed in PCT/EP2018/054686)", "value": "0.2 ± 0.1"}, {"measurement": "Activity Range: weighted arithmetic mean (AVEw) of normalized fluorescence intensity, relative to DMSO basis level of 1.0", "setting": "[11]", "value": "0.9 ± 0.0"}, {"measurement": "Activity Range: weighted arithmetic mean (AVEw) of normalized fluorescence intensity, relative to DMSO basis level of 1.0", "setting": "[12]", "value": "0.1 ± 0.0"}]}
